Data on 23 compounds can be found in PubChem BioAssay (NCI).

Some test systems named below: NCI-H522 lung; SNB-78 CNS; A498 renal; TK-10 renal; SK-MEL-5 melanoma; SK-OV-3 ovarian; DU-145 prostate; DLD-1 colon; HOP-92 NSCLC; KM12 colon.
Holding throughout (experiment): growth of human tumour cells (NCI), 48 h

Values joined by “and” are separate entries in the source; they are usually repeats but may differ in a detail not shown here. Identical values can stand only once.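 96-well plates; 48 h exposure; 5 concentrations. Endpoints by linear interpolation between flanking doses. Not reached: highest tested concentration assigned. GI50: concentration for 50% inhibition of growth. The concentration for full growth arrest is given as TGI.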

With `COc1ccc(C(=O)/C=C/c2ccc(OCC(=O)N3CCN(c4ccccc4)CC3)cc2)cc1`, the TGI is over 45.8 µM with NCI-H522 lung; 54.8 µM with SNB-78 CNS; over 93.9 µM in the experiment with A498 renal; 89.2 µM with TK-10 renal; over 85.1 µM in the experiment with SK-MEL-5 melanoma; 66 µM in the experiment with SK-OV-3 ovarian. Moreover, the TGI is over 100 µM in the experiment on DU-145 prostate, over 100 µM in the experiment on DLD-1 colon, 51.3 µM in the experiment with HOP-92 NSCLC and over 100 µM in the experiment on KM12 colon.

With `Cn1c2c(c3ccccc31)CCN(CCCCN1CCN(c3cccc(Cl)c3)CC1)C2=O`, the TGI in the experiment on NCI-H522 lung is 25.6 µM; in the experiment on SNB-78 CNS, 27.8 µM; in the experiment with A498 renal, 27.7 µM; in the experiment with TK-10 renal it was 25.1 µM; in the experiment on SK-MEL-5 melanoma it was 21.8 µM; in the experiment with SK-OV-3 ovarian, 37.8 µM. In addition, the values for the TGI in the experiment on DLD-1 colon and in the experiment on HOP-92 NSCLC were 25.1 µM and 34.7 µM, respectively.

In the case of `O=C1C2c3[nH]c4ccccc4c3[C@@H]3CCCCC3C2C(=O)N1c1ccccc1` (stereo partly drawn), the TGI in the experiment on SNB-78 CNS was 72 µM; with A498 renal it was 71.9 µM; in the experiment with TK-10 renal it was 68.7 µM; in the experiment on SK-MEL-5 melanoma, 32.1 µM; with SK-OV-3 ovarian it was 72.5 µM; in the experiment on DLD-1 colon, 92.4 µM. Moreover, in the experiment with KM12 colon, the TGI stood at 39.3 µM.

For the compound `OC(c1ccccn1)C1CNc2ccccc21` (stereo not drawn), the TGI in the experiment with NCI-H522 lung, in the experiment on SNB-78 CNS, with A498 renal, with TK-10 renal, in the experiment with SK-MEL-5 melanoma and in the experiment with SK-OV-3 ovarian was over 100 µM in each case. Besides, the TGI in the experiment on DLD-1 colon, in the experiment on HOP-92 NSCLC and in the experiment with KM12 colon was over 100 µM throughout.

For `O=C(CC(=O)C1CCOC1=O)C(=O)Nc1ccc(Cl)cc1Cl` (stereo not drawn), the TGI in the experiment on NCI-H522 lung, in the experiment on SNB-78 CNS, in the experiment on A498 renal, in the experiment with TK-10 renal, in the experiment on SK-MEL-5 melanoma and with SK-OV-3 ovarian was over 100 µM each time. Also, the TGI with DLD-1 colon, in the experiment with HOP-92 NSCLC and in the experiment with KM12 colon was over 100 µM throughout.

`Cc1ccc(C)c(NC(=O)CCc2nc(=S)[nH][nH]2)c1`: the TGI with NCI-H522 lung, with SNB-78 CNS, with A498 renal, in the experiment with TK-10 renal, in the experiment on SK-MEL-5 melanoma and in the experiment on SK-OV-3 ovarian was over 100 µM each time. Moreover, the TGI in the experiment with DLD-1 colon, with HOP-92 NSCLC and in the experiment on KM12 colon was over 100 µM in each case.

Regarding `COC(OC)[C@@H](C)[C@H](O)[C@](C)(O)C1OC(C)(C)OC(C(C)C=C(C)C)C1C` (stereo partly drawn), the TGI with NCI-H522 lung, in the experiment with SNB-78 CNS, in the experiment on A498 renal, in the experiment with TK-10 renal, in the experiment on SK-MEL-5 melanoma and with SK-OV-3 ovarian was over 100 µM throughout. Moreover, the TGI in the experiment on DLD-1 colon, in the experiment on HOP-92 NSCLC and in the experiment with KM12 colon was over 100 µM each time.

As to `COc1cc(-c2cc(=O)c3cc(C)c(C)c(C(=O)O)c3o2)cc(OC)c1OC`, the TGI with NCI-H522 lung, in the experiment on SNB-78 CNS, with A498 renal, in the experiment with TK-10 renal, with SK-MEL-5 melanoma and with SK-OV-3 ovarian was over 100 µM each time. Further, the TGI in the experiment with DLD-1 colon, in the experiment with HOP-92 NSCLC and with KM12 colon was over 100 µM each time.

On to `COCCOCC(=O)N(CCn1ccc(NC(c2ccccc2)(c2ccccc2)c2ccccc2)nc1=O)CCn1cnc2nc(N)[nH]c(=O)c21`, for which the TGI in the experiment with SNB-78 CNS, in the experiment with A498 renal, in the experiment on TK-10 renal, in the experiment on SK-MEL-5 melanoma, in the experiment on DLD-1 colon and in the experiment on HOP-92 NSCLC was over 100 µM in each case. For the same compound, the TGI in the experiment with KM12 colon was over 100 µM.

For the compound `O=C(O)Cn1c(=O)[nH]c(=O)c2c1ncn2Cc1ccccc1`, the TGI in the experiment on NCI-H522 lung, in the experiment on SNB-78 CNS, in the experiment on A498 renal, in the experiment with TK-10 renal, with SK-MEL-5 melanoma and in the experiment on SK-OV-3 ovarian was over 100 µM in each case. In addition, the TGI in the experiment on DLD-1 colon, with HOP-92 NSCLC and in the experiment on KM12 colon was over 100 µM in each case.

With `Nc1nc(N)c2nc(CNc3ccc(C(=O)NC(CCCNC(=O)c4ccccc4C(=O)O)C(=O)O)cc3)cnc2n1` (stereo not drawn), the GI50 is 0.016 µM in the experiment on NCI-H522 lung; 0.031 µM in the experiment with TK-10 renal; 0.00577 µM with SK-MEL-5 melanoma; < 0.01 µM and 0.0274 µM in the experiment on HOP-92 NSCLC; < 0.01 µM and 0.00297 µM with KM12 colon. Besides, the TGI with NCI-H522 lung, in the experiment with SNB-78 CNS, in the experiment on A498 renal, in the experiment with TK-10 renal, in the experiment on SK-MEL-5 melanoma and in the experiment on DU-145 prostate was over 100 µM each time. The TGI with DLD-1 colon and with KM12 colon was over 100 µM each time.

Take `Cc1nc(Nc2ccc([N+](=O)[O-])cc2)sc1C(/C=C/c1ccc(N(C)C)cc1)=N/NC(=O)c1ccccc1`: the TGI in the experiment with NCI-H522 lung was over 100 µM; in the experiment on SNB-78 CNS, over 100 µM; in the experiment on TK-10 renal it was over 100 µM; in the experiment with SK-OV-3 ovarian it was over 100 µM; in the experiment on DLD-1 colon it was over 100 µM; with HOP-92 NSCLC, 52.7 µM. In addition, the TGI in the experiment with KM12 colon was over 100 µM.

Consider `CC(C)(C)C(=O)O[C@@H]1COC2C(O)COC21` (stereo partly drawn), for which the TGI in the experiment with NCI-H522 lung, in the experiment on SNB-78 CNS, in the experiment with TK-10 renal, in the experiment with SK-MEL-5 melanoma, in the experiment on DLD-1 colon and in the experiment on HOP-92 NSCLC was over 100 µM throughout. The compound further yielded a TGI with KM12 colon of over 100 µM.

For the compound `CCC(C(=O)[O-])C(=O)[O-].CCC(C(=O)[O-])C(=O)[O-].N.N.NCCCCCCN.[Pt+4].[Pt+4]`, the GI50 with SNB-78 CNS is 10.7 µM; in the experiment on A498 renal, 8.85 µM; in the experiment on TK-10 renal it was 8.23 µM; with SK-MEL-5 melanoma, 3.35 µM; with SK-OV-3 ovarian, 10.3 µM; in the experiment on DLD-1 colon, 3.79 µM. Also, the values for the GI50 with HOP-92 NSCLC and with KM12 colon were 1.24 µM and 8.83 µM, respectively. Further, the TGI in the experiment on SNB-78 CNS was 29 µM; in the experiment on A498 renal, 18.1 µM; with TK-10 renal, 15.1 µM; in the experiment on SK-MEL-5 melanoma it was 9.46 µM; in the experiment on SK-OV-3 ovarian, 18.3 µM; in the experiment with DLD-1 colon, 13.9 µM. The values for the TGI with HOP-92 NSCLC and in the experiment on KM12 colon were 3.87 µM and 16.8 µM, respectively.

For the compound `O=C1/C(=C/c2ccccc2)CN(C(=O)OCc2ccccc2)C/C1=C\c1ccccc1`, the TGI is 18.5 µM with NCI-H522 lung; 25.4 µM in the experiment with SNB-78 CNS; over 31.6 µM in the experiment on A498 renal; over 46.2 µM in the experiment on TK-10 renal; 30.7 µM in the experiment with SK-MEL-5 melanoma; 40.5 µM in the experiment with SK-OV-3 ovarian. Besides, the TGI was over 100 µM in the experiment with DU-145 prostate, 14.2 µM in the experiment on DLD-1 colon, over 100 µM with HOP-92 NSCLC and 14.8 µM in the experiment on KM12 colon. The figures for the GI50 in the experiment with SK-MEL-5 melanoma, in the experiment with DLD-1 colon and in the experiment with KM12 colon were 3.44 µM, 4.14 µM and 2.68 µM, respectively.

As to `Cc1cc(C)c(S(=O)(=O)ONC(=O)OC(C)(C)C)c(C)c1`, the TGI in the experiment on NCI-H522 lung, with SNB-78 CNS, in the experiment with A498 renal, in the experiment with TK-10 renal, in the experiment on SK-MEL-5 melanoma and with SK-OV-3 ovarian was over 100 µM throughout. In addition, the TGI with DLD-1 colon, with HOP-92 NSCLC and in the experiment on KM12 colon was over 100 µM throughout.

For `O=C(NO)C(=O)Nc1ccc(Cl)cc1[N+](=O)[O-]`, the TGI in the experiment on NCI-H522 lung, in the experiment with SNB-78 CNS, with A498 renal, with TK-10 renal, with SK-MEL-5 melanoma and in the experiment with SK-OV-3 ovarian was over 100 µM in each case. In addition, the TGI with DLD-1 colon, in the experiment on HOP-92 NSCLC and with KM12 colon was over 100 µM each time.

As for `O=C([O-])c1ccc(C(=O)[O-])cc1.O=C([O-])c1ccc(C(=O)[O-])cc1.[Mo+2].[Mo+2]`, the GI50 in the experiment on SNB-78 CNS was over 100 µM; in the experiment on TK-10 renal, over 100 µM; in the experiment on SK-MEL-5 melanoma, over 100 µM; in the experiment on SK-OV-3 ovarian, over 100 µM; in the experiment on DLD-1 colon, over 100 µM; with HOP-92 NSCLC, 99.8 µM. Further, in the experiment on KM12 colon, the GI50 is over 100 µM. The TGI in the experiment on SNB-78 CNS, in the experiment on TK-10 renal, with SK-MEL-5 melanoma, in the experiment on SK-OV-3 ovarian, with DLD-1 colon and in the experiment with HOP-92 NSCLC was over 100 µM throughout. In addition, the TGI in the experiment on KM12 colon was over 100 µM.

As for `N#CC1(C=O)c2ccccc2C=CN1C(=O)c1ccccc1` (stereo not drawn), the TGI is over 100 µM in the experiment on NCI-H522 lung; over 100 µM in the experiment with SNB-78 CNS; over 100 µM in the experiment with A498 renal; over 100 µM in the experiment with TK-10 renal; 47.3 µM in the experiment with SK-MEL-5 melanoma; 65.9 µM in the experiment with HOP-92 NSCLC. This compound also returned a TGI in the experiment on KM12 colon of over 100 µM.

In the case of `CCOC(=O)NC(=O)c1cn(CCN2CCN(C(=O)CCCCCCCCCCNc3ncnc4nc[nH]c34)CC2)c(=O)[nH]c1=O`, the TGI with SNB-78 CNS, with TK-10 renal, in the experiment with SK-MEL-5 melanoma, in the experiment on SK-OV-3 ovarian, with DLD-1 colon and in the experiment on HOP-92 NSCLC was over 100 µM each time. This compound returned a TGI in the experiment on KM12 colon of over 100 µM.

On to `COc1ccc(/C(=N/NC(N)=O)C(c2ccc(OC)cc2)C2C(=O)Oc3ccccc32)cc1` (stereo not drawn), for which the TGI with NCI-H522 lung, in the experiment on SNB-78 CNS, in the experiment on SK-MEL-5 melanoma, in the experiment with SK-OV-3 ovarian, in the experiment on DLD-1 colon and with HOP-92 NSCLC was over 100 µM each time. Besides, in the experiment on KM12 colon, the TGI is over 100 µM.

`O=C(NCCCCCCCCNC(=O)c1cccc2ccccc12)c1cccc2ccccc12`: the TGI was over 46.4 µM with NCI-H522 lung; 48.3 µM with SNB-78 CNS; 56.8 µM in the experiment on A498 renal; 43.3 µM with TK-10 renal; over 100 µM in the experiment on SK-MEL-5 melanoma; 41.6 µM with SK-OV-3 ovarian. The TGI is over 100 µM in the experiment with DU-145 prostate, over 100 µM in the experiment with DLD-1 colon, 20.4 µM with HOP-92 NSCLC and over 100 µM with KM12 colon.

`O=C(NNC(=O)c1cc(/C=C/c2cccc([N+](=O)[O-])c2)[nH]c(=S)n1)Nc1ccc(Cl)cc1`: the TGI was 81.8 µM in the experiment on NCI-H522 lung; over 100 µM in the experiment on SNB-78 CNS; over 100 µM in the experiment with A498 renal; over 100 µM with TK-10 renal; over 100 µM with SK-MEL-5 melanoma; over 100 µM in the experiment with SK-OV-3 ovarian. The TGI in the experiment with DLD-1 colon is 47.8 µM; in the experiment with KM12 colon it was over 100 µM.
